We go through 8 compounds from ChEMBL document CHEMBL3352528, “Ejection of structural zinc leads to inhibition of γ-butyrobetaine hydroxylase” (Bioorg Med Chem Lett, 2014).

The source made the active and inactive calls. The rule behind the calls is not given here.

In experiment [1] the target is T1, Gamma-butyrobetaine dioxygenase (Homo sapiens, UniProt O75936).
T1 sequence (O75936 whole entry): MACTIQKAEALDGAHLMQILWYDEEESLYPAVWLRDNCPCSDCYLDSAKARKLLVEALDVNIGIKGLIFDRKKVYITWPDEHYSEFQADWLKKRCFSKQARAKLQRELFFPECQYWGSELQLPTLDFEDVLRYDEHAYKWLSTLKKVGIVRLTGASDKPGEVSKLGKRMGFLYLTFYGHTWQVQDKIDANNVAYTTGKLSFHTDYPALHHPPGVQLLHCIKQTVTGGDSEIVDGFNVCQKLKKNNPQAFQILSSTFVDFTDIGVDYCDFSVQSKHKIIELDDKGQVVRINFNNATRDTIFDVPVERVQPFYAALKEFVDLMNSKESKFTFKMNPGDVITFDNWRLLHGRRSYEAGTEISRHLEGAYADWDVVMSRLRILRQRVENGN
Description: Inhibition of human BBOX pre-incubated for 15 mins using TBS-protected fluorescein probe and Fe (II) (Fe(NH4)2(SO4)2 salt by fluoride release assay.

In experiment [2] the target is T1, Gamma-butyrobetaine dioxygenase. Description: Inhibition of human BBOX pre-incubated for 20 mins using TBS-protected fluorescein probe and Fe (II) (Fe(NH4)2(SO4)2 salt by fluoride release assay.
Experiment [3] shares this target. Description: Inhibition of human BBOX pre-incubated for 10 mins using TBS-protected fluorescein probe and Fe (II) (Fe(NH4)2(SO4)2 salt by fluoride release assay.
For experiment [4] the target is unchanged. Nature of the experiment: Inhibition of human BBOX pre-incubated for 25 mins using TBS-protected fluorescein probe and Fe (II) (Fe(NH4)2(SO4)2 salt by fluoride release assay.
Experiment [5] shares this target. Description: Binding affinity to human BBOX in presence of Fe(II) by tryptophan fluorescence quenching binding assay.
Experiment [6] has the same target. Description: Binding affinity to human BBOX by tryptophan fluorescence quenching binding assay.
In experiment [7] the target is T2, Gamma-butyrobetaine dioxygenase (Homo sapiens) (UniProt O75936).
T2 sequence (whole entry): T1 sequence (O75936 whole entry)
Description: Binding affinity to human BBOX assessed as quenching of intrinsic tryptophan fluorescence at 50 to 200 uM in absence of Fe(II).

Experiment [8] deals with T1, Gamma-butyrobetaine dioxygenase. Description: Inhibition of human BBOX pre-incubated for 1 min using TBS-protected fluorescein probe and Fe (II) (Fe(NH4)2(SO4)2 salt by fluoride release assay.
Experiment [9] concerns the target T2, Gamma-butyrobetaine dioxygenase (Homo sapiens). Nature of the experiment: Induction of Zn(II) from human BBOX assessed as zinc release by fluorescence based assay.

Take `O=[Se](O)c1ccccc1`: the IC50 was determined as 6.3 µM in [1]; 4.7 µM in [2]; 11 µM in [3]; 2.6 µM in experiment [4]; 35 µM in experiment [8]. The Kd in [5] was determined as 12 µM; in experiment [6] it was 7.6 µM. In experiment [7], the outcome was Active.

Turning to `Cl[Se]c1ccccc1`, the IC50 was 3.2 µM in experiment [1]; 2.9 µM in experiment [2]; 4 µM in experiment [3]; 2.2 µM in [4]; 5.1 µM in experiment [8]. The Kd in [5] worked out at 7.5 µM; in experiment [6] it was 9.4 µM. Further, the result in [7] was Active.

Turning to `CN(C)C(=S)SSC(=S)N(C)C` [THIRAM], the IC50 turned out to be 14 µM in experiment [1]; 7.9 µM in experiment [2]; 34 µM in experiment [3]; 5.8 µM in [4]; 56 µM in [8]. For the same compound, the figures for the Kd in experiment [5] and in [6] were 35 µM and 59 µM, respectively. For the same compound, in experiment [7], the outcome was Active.

In the case of `O[Se]c1ccccc1`, the IC50 amounted to 26 µM in experiment [1]; 19 µM in experiment [2]; 35 µM in experiment [3]; 17 µM in experiment [4]; 54 µM in [8]. The Kd in experiment [5] and in experiment [6] was over 200 µM in each case. In addition, the result in experiment [7] was Active.

Regarding `O=C(O)CNC(=O)c1nc(Cl)c2ccccc2c1O`, the IC50 in experiment [2] came to 32 µM; in [3], 33 µM; in experiment [8], 36 µM. The result in experiment [9] and in [7] was inactive. The Kd in experiment [5] turned out to be 13 µM; in experiment [6] it was 122 µM.

For `Br[Se]c1ccccc1`, the IC50 stood at 3.4 µM in [1]; 3 µM in experiment [2]; 3.4 µM in experiment [3]; 2.3 µM in experiment [4]; 7.1 µM in experiment [8]. Moreover, the values for the Kd in experiment [5] and in [6] were 11 µM and 13 µM, respectively. Also, the outcome in experiment [7] was Active.

`c1ccc([Se][Se]c2ccccc2)cc1`: the IC50 in [1] was found to be 49 µM; in experiment [2], 42 µM; in experiment [3], 47 µM; in [4], 39 µM; in [8], 55 µM. In addition, the Kd in [5] and in experiment [6] was over 200 µM in each case. Moreover, the result in [7] was Active.

For the compound `O=c1c2ccccc2[se]n1-c1ccccc1` [EBSELEN], the half-inhibitory concentration (IC50) in experiment [1] came to 0.76 µM; in experiment [2], 0.83 µM; in [3], 0.71 µM; in experiment [4], 0.72 µM; in experiment [8], 0.69 µM. Further, the Kd in experiment [5] was found to be 4.6 µM; in experiment [6] it was 3.6 µM. Further, the result in experiment [7] was Active.
